Data as given in patent publication US20210009583A1, “DEUTERATED IMIDAZOPYRIDINES” (UNIVERSITY OF NOTRE DAME DU LAC, priority 2018, published 2021).
Where “and” joins values, the source holds several entries; their conditions need not be identical. Equal values may be shown once. Read-outs that look alike come from different tables or passages of the source.

Legend:
TB infection = details: cited from earlier work
[1] = Single dose pharmacokinetic study after oral administration, with and without ABT pre-dosing; type: in vivo, female Balb/c mice
Protocol: Based on MIC and acute toxicity data, two compounds ND-011176 and a deuterated analog ND-012101 were selected for evaluation in a single dose pharmacokinetic study (with and without pre-dosing of 1-Aminobenzotriazole, ABT) after oral administration to female Balb/c mice.
All animals were administered with the prepared test article via oral gavage at a target dose level of 200 mg/kg and at the dose volume detailed in the table 1 below. Each animal in Groups 2, 4, 6, 8 and 10 received a dose of ABT (100 mg/kg) via oral gavage two hours prior to Test Article administration.
Whole blood samples (0.1 mL each) were collected at the first time point via submandibular vein (SMV), or an appropriate peripheral vein if it was necessary. Up to 0.5 mL of whole blood was collected at terminal blood collection via intra cardiac puncture (ICP). For animals 1-3 from each of the 10 Groups, blood samples were collected at 0.5 and 4 hours after oral dosing. […]
The plasma samples and dose formulation samples were analyzed by the Testing Facility to determine the concentration of the test article using LC-MS/MS. PK parameters were estimated from the plasma concentration-time data by standard non-compartmental methods utilizing suitable analysis software.

[2] = 5 h (mean of the "8" and "12" TP samples taken before euthanasia), PO 200 mg/kg + 100 mg/kg ABT
[3] = female, Balb/c, mouse, in vivo, po, 200 mg/kg
[4] = mouse, in vivo, female Balb/c mice, single oral dose 200 mg/kg, no ABT

Cc1ccc2nc(C)c(C(=O)NCc3ccc(C(F)(F)F)cc3)n2c1 [ND-011176]
cfu reduction with respect to non-treated controls (TB infection; 300 mg/kg): 2 log cfu | cfu reduction with respect to non-treated controls (TB infection; 500 mg/kg): 2 log cfu | Signs of toxicity (TB infection; any of the administered doses): No signs of toxicity | Drug plasma concentration, individual mice ([1]; 0.5 h, PO 200 mg/kg + 100 mg/kg ABT): 18100 ng/mL and 22600 ng/mL | Drug plasma concentration, individual mice ([1]; 0.5 h, PO 200 mg/kg, no ABT, 200 mg/kg): 5140 ng/mL and 7170 ng/mL | Drug plasma concentration, individual mice ([1]; 2 h, PO 200 mg/kg + 100 mg/kg ABT): 29300 ng/mL and 38200 ng/mL | Drug plasma concentration, individual mice ([1]; 2 h, PO 200 mg/kg, no ABT, 200 mg/kg): 5280 ng/mL and 4450 ng/mL | Drug plasma concentration, individual mice ([1]; 4 h, PO 200 mg/kg + 100 mg/kg ABT): 34700 ng/mL and 44900 ng/mL | Drug plasma concentration, individual mice ([1]; 4 h, PO 200 mg/kg, no ABT, 200 mg/kg): 432 ng/mL and 507 ng/mL | Drug plasma concentration, Average [1, 2]: 41617^^ ng/mL | Drug plasma concentration, individual mice [1, 2]: 39200^^ ng/mL and 41600^^ ng/mL and 44050^^ ng/mL | Drug plasma concentration, individual mice ([1]; 8 h, PO 200 mg/kg, no ABT, 200 mg/kg): 110 ng/mL and 25 ng/mL and 88.2 ng/mL | Drug plasma concentration, individual mice ([1]; 12 h, PO 200 mg/kg, no ABT, 200 mg/kg): BQL and 28.8 ng/mL | Drug plasma concentration, individual mice ([1]; 24 h, PO 200 mg/kg, no ABT, 200 mg/kg): BQL | % AUC Extrap ([1]; female Balb/c mice, single oral dose 200 mg/kg, no ABT): 0.00% | concentration at 0.5 h ([1]; female, Balb/c, mouse, in vivo, 0.5 h, PO 200 mg/kg + 100 mg/kg ABT, read-out: Drug plasma concentration, Average): 20100 ng/mL | concentration at 0.5 h ([1]; female, Balb/c, mouse, in vivo, 0.5 h, PO 200 mg/kg + 100 mg/kg ABT, read-out: Drug plasma concentration, individual mice): 19600 ng/mL | concentration at 2 h ([1]; female, Balb/c, mouse, in vivo, 2 h, PO 200 mg/kg + 100 mg/kg ABT, read-out: Drug plasma concentration, Average): 34600 ng/mL | concentration at 2 h ([1]; female, Balb/c, mouse, in vivo, 2 h, PO 200 mg/kg + 100 mg/kg ABT, read-out: Drug plasma concentration, individual mice): 36400 ng/mL | concentration at 4 h ([1]; female, Balb/c, mouse, in vivo, 4 h, PO 200 mg/kg + 100 mg/kg ABT, read-out: Drug plasma concentration, Average): 44800 ng/mL | concentration at 4 h ([1]; female, Balb/c, mouse, in vivo, 4 h, PO 200 mg/kg + 100 mg/kg ABT, read-out: Drug plasma concentration, individual mice): 54800 ng/mL | AUC(0-x)/Dose [1, 3]: 78.4 ng·h/mL/mg/kg | AUC(0-∞)/Dose [1, 3]: 78.4 ng·h/mL/mg/kg | Cmax/Dose [1, 3]: 34 ng/mL/mg/kg | concentration at 0.5 h ([1]; female, Balb/c, mouse, in vivo, po, 200 mg/kg, 0.5 h, PO 200 mg/kg, no ABT, read-out: Drug plasma concentration, Average): 6730 ng/mL | concentration at 0.5 h ([1]; female, Balb/c, mouse, in vivo, po, 200 mg/kg, 0.5 h, PO 200 mg/kg, no ABT, read-out: Drug plasma concentration, individual mice): 7880 ng/mL | concentration at 2 h ([1]; female, Balb/c, mouse, in vivo, po, 200 mg/kg, 2 h, PO 200 mg/kg, no ABT, read-out: Drug plasma concentration, Average): 6100 ng/mL | concentration at 2 h ([1]; female, Balb/c, mouse, in vivo, po, 200 mg/kg, 2 h, PO 200 mg/kg, no ABT, read-out: Drug plasma concentration, individual mice): 8580 ng/mL | concentration at 4 h ([1]; female, Balb/c, mouse, in vivo, po, 200 mg/kg, 4 h, PO 200 mg/kg, no ABT, read-out: Drug plasma concentration, Average): 600 ng/mL | concentration at 4 h ([1]; female, Balb/c, mouse, in vivo, po, 200 mg/kg, 4 h, PO 200 mg/kg, no ABT, read-out: Drug plasma concentration, individual mice): 861 ng/mL | concentration at 8 h ([1]; female, Balb/c, mouse, in vivo, po, 200 mg/kg, 8 h, PO 200 mg/kg, no ABT, read-out: Drug plasma concentration, Average): 74 ng/mL | concentration at 12 h ([1]; female, Balb/c, mouse, in vivo, po, 200 mg/kg, 12 h, PO 200 mg/kg, no ABT, read-out: Drug plasma concentration, Average): 34 ng/mL | concentration at 12 h ([1]; female, Balb/c, mouse, in vivo, po, 200 mg/kg, 12 h, PO 200 mg/kg, no ABT, read-out: Drug plasma concentration, individual mice): 40.1 ng/mL | concentration at 24 h ([1]; female, Balb/c, mouse, in vivo, po, 200 mg/kg, 24 h, PO 200 mg/kg, no ABT, read-out: Drug plasma concentration, Average): 8 ng/mL | concentration at 24 h ([1]; female, Balb/c, mouse, in vivo, po, 200 mg/kg, 24 h, PO 200 mg/kg, no ABT, read-out: Drug plasma concentration, individual mice): 8.09 ng/mL | Cmax ([1]; mouse, in vivo, female Balb/c mice, single oral dose 200 mg/kg, ABT 100 mg/kg PO 2 h before, manually added from the TA concentration data): 44800 ng/mL | AUC(0-inf) [1, 4]: 15700 ng·h/mL | Cmax [1, 4]: 6730 ng/mL | Tmax [1, 4]: 0.5 h | half-life [1, 4]: 1.7 h | AUC ([1]; mouse, in vivo, female Balb/c mice, single oral dose 200 mg/kg, no ABT, read-out: AUC(0-x)): 15700 ng·h/mL
